Values after ≈ are worked out from the molar mass of the structure shown. Read-outs that look alike come from different tables or passages of the source.
Experiments:
[1] = tested on: Bacillus cereus ATCC 10702; assay: Minimum inhibitory concentration, serial dilution on nutrient agar; format: cell-based; conditions: read-out: Minimum Inhibitory Concentration
[2] = tested on: Klebsiella pneumoniae PCI 602; assay: as above; format: cell-based; conditions: read-out: Minimum Inhibitory Concentration
[3] = tested on: drug-resistant strains of Escherichia coli and Pseudomonas aeruginosa; assay: antibacterial activity against drug-resistant strains, in words; format: cell-based
[4] = tested on: Escherichia coli W677; assay: Minimum inhibitory concentration, serial dilution on nutrient agar; format: cell-based; conditions: read-out: Minimum Inhibitory Concentration
[5] = tested on: Salmonella enteritidis 1891; assay: as above; format: cell-based; conditions: Salmonella enterica, read-out: Minimum Inhibitory Concentration
[6] = tested on: Pseudomonas aeruginosa GN315; assay: as above; format: cell-based; conditions: read-out: Minimum Inhibitory Concentration
[7] = tested on: Escherichia coli K-12 ML 1410; assay: as above; format: cell-based; conditions: read-out: Minimum Inhibitory Concentration
[8] = tested on: Pseudomonas aeruginosa 99; assay: as above; format: cell-based; conditions: Pseudomonas aeruginosa, 99, 18 h, read-out: Minimum Inhibitory Concentration
[9] = tested on: Escherichia coli LA290 R64; assay: as above; format: cell-based; conditions: LA290R64, 18 h, read-out: Minimum Inhibitory Concentration
[10] = tested on: Salmonella typhosa T-63; assay: as above; format: cell-based; conditions: Salmonella enterica, 18 h, read-out: Minimum Inhibitory Concentration
[11] = tested on: Staphylococcus aureus FDA 209P; assay: as above; format: cell-based; conditions: FDA209P, 18 h, read-out: Minimum Inhibitory Concentration
[12] = acute toxicity upon intravenous injection in mice; format: in vivo; conditions: mouse, in vivo; intravenous injection, mice
[13] = tested on: Escherichia coli K-12 ML 1629; assay: Minimum inhibitory concentration, serial dilution on nutrient agar; format: cell-based; conditions: K12ML1629, 18 h, read-out: Minimum Inhibitory Concentration
[14] = tested on: Proteus vulgaris OX 19; assay: as above; format: cell-based; conditions: read-out: Minimum Inhibitory Concentration
[15] = tested on: Staphylococcus aureus Terajima; assay: as above; format: cell-based; conditions: read-out: Minimum Inhibitory Concentration
[16] = tested on: Bacillus anthracis; assay: microbe, parasite or virus in culture; format: cell-based; conditions: 18 h, read-out: Minimum Inhibitory Concentration
[17] = tested on: Escherichia coli K-12; assay: Minimum inhibitory concentration, serial dilution on nutrient agar; format: cell-based; conditions: read-out: Minimum Inhibitory Concentration
[18] = tested on: gram-negative and gram-positive bacteria; assay: antibacterial activity, in words; format: cell-based; conditions: gram-negative and gram-positive bacteria sensitive to kanamycins
Experimental: (§1) The minimum inhibitory concentrations (mcg/ml) of 1-N-DL-isoserylkanamycin,1-N-DL-isoserylkanamycin B and 1-N-DL-isoseryl-3',4'-dideoxykanamycin B against various microorganisms were determined according to the serial dilution method using nutrient agar medium at 37°C, the estimation being effected after 18 hours incubation. For comparison purposes, the minimum inhibitory concentrations of kanamycin, kanamycin B and 3',4'-dideoxykanamycin B were also determined in the same manner and under the same conditions as mentioned above.
(§2) The antibacterial spectra of 1-N-DL-isoseryl-kanamycin (abbreviated as 1-IS-KM), 1-N-DL-isoseryl-kanamycin B (abbreviated as 1-IS-KMB) and 1-N-DL-isoseryl-3',4'-dideoxykanamycin B (abbreviated as 1-IS-DKB) are shown in the following table together with those of kanamycin (abbreviatedas KM), kanamycin B (abbreviated as KMB) and 3',4'-dideoxykanamycin B (abbreviated as DKB).

[19] = tested on: Klebsiella pneumoniae 22 No. 3038; assay: Minimum inhibitory concentration, serial dilution on nutrient agar; format: cell-based; conditions: 22NO.3038, 18 h, read-out: Minimum Inhibitory Concentration
[20] = tested on: Mycobacterium smegmatis ATCC 607; assay: as above; format: cell-based; conditions: Mycolicibacterium smegmatis, read-out: Minimum Inhibitory Concentration
[21] = tested on: Escherichia coli LA290 R55; assay: as above; format: cell-based; conditions: LA290R55, 18 h, read-out: Minimum Inhibitory Concentration
[22] = tested on: Pseudomonas aeruginosa No.12; assay: as above; format: cell-based; conditions: NO.12, 18 h, read-out: Minimum Inhibitory Concentration
[23] = tested on: Corynebacterium bovis 1810; assay: as above; format: cell-based; conditions: read-out: Minimum Inhibitory Concentration
[24] = tested on: Escherichia coli JR66/W677; assay: as above; format: cell-based; conditions: read-out: Minimum Inhibitory Concentration
[25] = tested on: Escherichia coli NIHJ; assay: as above; format: cell-based; conditions: 18 h, read-out: Minimum Inhibitory Concentration
[26] = tested on: Sarcina lutea PCI 1001; assay: as above; format: cell-based; conditions: Micrococcus luteus, PCI1001, 18 h, read-out: Minimum Inhibitory Concentration
[27] = tested on: Staphylococcus aureus Smith; assay: as above; format: cell-based; conditions: read-out: Minimum Inhibitory Concentration
[28] = tested on: Escherichia coli K-12 ML 1410 R81; assay: as above; format: cell-based; conditions: 18 h, read-out: Minimum Inhibitory Concentration
[29] = tested on: Escherichia coli LA290 R56; assay: as above; format: cell-based; conditions: LA290R56, 18 h, read-out: Minimum Inhibitory Concentration
[30] = tested on: Bacillus subtilis PCI 219; assay: as above; format: cell-based; conditions: read-out: Minimum Inhibitory Concentration
[31] = tested on: Escherichia coli K-12 ML 1630; assay: as above; format: cell-based; conditions: K12ML1630, 37°C, 18 hours
Experimental: as §1, §2

[32] = tested on: Shigella flexneri 4b JS 11811; assay: as above; format: cell-based; conditions: 4BJS11811, 37°C, 18 hours
Experimental: as §1, §2

[33] = tested on: Shigella sonnei JS 11746; assay: as above; format: cell-based; conditions: JS11746, 37°C, 18 hours
Experimental: as §1, §2

[34] = tested on: Pseudomonas aeruginosa TI-13; assay: as above; format: cell-based; conditions: TI13, 37°C, 18 hours
Experimental: as §1, §2

[35] = tested on: Pseudomonas aeruginosa A3; assay: as above; format: cell-based; conditions: 37°C, 18 hours
Experimental: as §1, §2

[36] = tested on: Bacillus subtilis NRRL B-558; assay: as above; format: cell-based; conditions: read-out: Minimum Inhibitory Concentration
[37] = tested on: Shigella dysenteriae JS 11910; assay: as above; format: cell-based; conditions: JS11910, 18 h, read-out: Minimum Inhibitory Concentration

Compound	MIC [8]	MIC [9]	MIC [10]	MIC [11]	MIC [13]	MIC [16]	MIC [19]	MIC [21]	MIC [22]	MIC [25]	MIC [26]	MIC [28]	MIC [29]	MIC [31]	MIC [32]	MIC [33]	MIC [34]	MIC [35]	MIC [37]	other results
NCC(O)C(=O)N[C@@H]1C[C@H](N)[C@@H](O[C@H]2O[C@H](CN)[C@@H](O)[C@H](O)[C@H]2N)[C@H](O)[C@H]1O[C@H]1O[C@H](CO)[C@@H](O)[C@H](N)[C@H]1O (mixture of isomers) [1-IS-KMB, 1-N-DL-isoserylkanamycin B]	6.25 µg/mL	0.78 µg/mL	0.78 µg/mL	1.56 µg/mL	3.13 µg/mL	< 0.2 µg/mL	6.25 µg/mL	1.56 µg/mL	6.25 µg/mL	3.13 µg/mL	6.25 µg/mL	3.13 µg/mL	0.78 µg/mL	3.13 µg/mL	3.13 µg/mL	6.25 µg/mL	6.25 µg/mL	6.25 µg/mL	6.25 µg/mL	MIC ([1]; ATCC10702, 37°C, 18 hours): 1.56 µg/mL; MIC ([2]; PCI602, 37°C, 18 hours): 0.78 µg/mL; antibacterial activity [3]: high antibacterial activity; MIC ([4]; W677, 37°C, 18 hours): 0.78 µg/mL; MIC ([5]; 37°C, 18 hours): 0.78 µg/mL; MIC ([6]; GN315, 37°C, 18 hours): 50 µg/mL; MIC ([7]; K12ML1410, 37°C, 18 hours): 1.56 µg/mL; LD50 [12]: > 100 mg/kg; MIC ([14]; OX19, 37°C, 18 hours): 0.78 µg/mL; MIC ([15]; 37°C, 18 hours): < 0.2 µg/mL; MIC ([17]; K12, 37°C, 18 hours): 1.56 µg/mL; antibacterial activity [18]: high antibacterial activity; MIC ([20]; ATCC607, 37°C, 18 hours): 0.78 µg/mL; MIC ([23]; Corynebacterium bovis, 1810, 37°C, 18 hours): 1.56 µg/mL; MIC ([24]; JR66/W677, 37°C, 18 hours): 12.5 µg/mL; MIC ([27]; 37°C, 18 hours): < 0.2 µg/mL; MIC ([30]; PCI219, 37°C, 18 hours): < 0.2 µg/mL; MIC ([36]; NRRLB558, 37°C, 18 hours): < 0.2 µg/mL
NC[C@H]1O[C@H](O[C@H]2[C@H](O)[C@@H](O[C@H]3O[C@H](CO)[C@@H](O)[C@H](N)[C@H]3O)[C@H](N)C[C@@H]2N)[C@H](N)[C@@H](O)[C@@H]1O [KMB, kanamycin B, reference compound]	> 100 µg/mL	3.13 µg/mL (≈ 6.47 µM)	0.2 µg/mL (≈ 0.414 µM)	0.39 µg/mL (≈ 0.807 µM)	> 100 µg/mL	< 0.2 µg/mL	> 100 µg/mL	12.5 µg/mL (≈ 25.9 µM)	12.5 µg/mL (≈ 25.9 µM)	0.78 µg/mL (≈ 1.61 µM)	1.56 µg/mL (≈ 3.23 µM)	> 100 µg/mL	3.13 µg/mL (≈ 6.47 µM)	> 100 µg/mL	3.13 µg/mL (≈ 6.47 µM)	1.56 µg/mL (≈ 3.23 µM)	100 µg/mL (≈ 207 µM)	50 µg/mL (≈ 103 µM)	3.13 µg/mL (≈ 6.47 µM)	MIC ([1]; ATCC10702, 18 h): 0.78 µg/mL (≈ 1.61 µM); MIC ([2]; PCI602, 18 h): 0.78 µg/mL (≈ 1.61 µM); MIC ([4]; W677, 18 h): 0.39 µg/mL (≈ 0.807 µM); MIC ([5]; 18 h): 1.56 µg/mL (≈ 3.23 µM); MIC ([6]; GN315, 18 h): > 100 µg/mL; MIC ([7]; K12ML1410, 18 h): 0.78 µg/mL (≈ 1.61 µM); MIC ([14]; OX19, 18 h): 0.78 µg/mL (≈ 1.61 µM); MIC ([15]; 18 h): < 0.2 µg/mL; MIC ([17]; K12, 18 h): 0.78 µg/mL (≈ 1.61 µM); MIC ([20]; ATCC607, 18 h): 0.78 µg/mL (≈ 1.61 µM); MIC ([23]; Corynebacterium bovis, 1810, 18 h): 1.56 µg/mL (≈ 3.23 µM); MIC ([24]; JR66/W677, 18 h): > 100 µg/mL; MIC ([27]; 18 h): < 0.2 µg/mL; MIC ([30]; PCI219, 18 h): < 0.2 µg/mL; MIC ([36]; NRRLB558, 18 h): < 0.2 µg/mL

— US3939143A, “1-N-isoserylkanamycins and the production thereof” (Zaidan Hojin Biseibutsu Kagaku Kenkyu Kai, priority 1973, dated 1976)
